Assay results from patent publication US20040097596A1 (priority 2000, published 2004).
Like-named read-outs stand apart in the source and are kept apart here.

Tests used:
[1] = system: Oidium lycopersici; experiment: Powdery mildew assay on detached tomato leaflets, % disease control, observed vs expected (Colby); assay type: in vivo
[2] = system: Phytophthora infestans; assay type: in vivo; details: for E, Expected % disease control / O, Observed % disease control / O-E: A76 potato
[3] = tomato 980 Le/MM/Cf9-8, 0.1 ppm, Feb. 16, 2001
[4] = tomato 980 Le/MM/Cf9-8, 0.1 ppm, Feb. 17, 2001
[5] = tomato 980 Le/MM/Cf9-8, 0.1 ppm, Feb. 18, 2001
[6] = tomato 980 Le/MM/Cf9-8, 0.1 ppm, Feb. 19, 2001
[7] = tomato 980 Le/MM/Cf9-8, 0.1 ppm, Feb. 20, 2001
[8] = tomato 980 Le/MM/Cf9-44, 0.1 ppm, Feb. 16, 2001
[9] = tomato 980 Le/MM/Cf9-44, 0.1 ppm, Feb. 17, 2001
[10] = tomato 980 Le/MM/Cf9-44, 0.1 ppm, Feb. 18, 2001
[11] = tomato 980 Le/MM/Cf9-44, 0.1 ppm, Feb. 19, 2001
[12] = tomato 980 Le/MM/Cf9-44, 0.1 ppm, Feb. 20, 2001
[13] = tomato 981 Le/MM/Cf9-22, 0.1 ppm, Feb. 16, 2001
[14] = tomato 981 Le/MM/Cf9-22, 0.1 ppm, Feb. 17, 2001
[15] = tomato 981 Le/MM/Cf9-22, 0.1 ppm, Feb. 18, 2001
[16] = tomato 981 Le/MM/Cf9-22, 0.1 ppm, Feb. 19, 2001
[17] = tomato 981 Le/MM/Cf9-22, 0.1 ppm, Feb. 20, 2001
[18] = 0.03 ppm, Jan. 25, 2001, FB 2001/3001
[19] = 0.03 ppm, Jan. 26, 2001, FB 2001/3001
[20] = 0.03 ppm, Jan. 27, 2001, FB 2001/3001
[21] = 0.03 ppm, Jan. 28, 2001, FB 2001/3001
[22] = 0.03 ppm, Jan. 29, 2001, FB 2001/3001
[23] = 0.1 ppm, Jan. 25, 2001, FB 2001/3001
[24] = 0.1 ppm, Jan. 26, 2001, FB 2001/3001
[25] = 0.1 ppm, Jan. 27, 2001, FB 2001/3001
[26] = 0.1 ppm, Jan. 28, 2001, FB 2001/3001
[27] = 0.1 ppm, Jan. 29, 2001, FB 2001/3001
[28] = 0.3 ppm, Jan. 25, 2001, FB 2001/3001
[29] = 0.3 ppm, Jan. 26, 2001, FB 2001/3001
[30] = 0.3 ppm, Jan. 27, 2001, FB 2001/3001
[31] = 0.3 ppm, Jan. 28, 2001, FB 2001/3001
[32] = 0.3 ppm, Jan. 29, 2001, FB 2001/3001

SMILES: CO/C=C(/C(=O)OC)c1ccccc1Oc1cc(Oc2ccccc2C#N)ncn1 [Azoxystrobin, azoxystrobin]
- performance in combination with the transgenic line (indicative of synergy) ([1]; all three transgenic tomato lines, observed vs expected disease control): better than expected
- E, expected disease control [1, 3]: 97.5%
- O, observed disease control [1, 3]: 93.01%
- O-E [1, 3]: −4.49
- E, expected disease control [1, 4]: 92.53%
- O, observed disease control [1, 4]: 89.64%
- O-E [1, 4]: −2.89
- E, expected disease control [1, 5]: 79.68%
- O, observed disease control [1, 5]: 86.84%
- O-E [1, 5]: 7.16
- E, expected disease control [1, 6]: 74.81%
- O, observed disease control [1, 6]: 87.5%
- O-E [1, 6]: 12.69
- E, expected disease control [1, 7]: 67.47%
- O, observed disease control [1, 7]: 81.11%
- O-E [1, 7]: 13.64
- E, expected disease control [1, 8]: 93.9%
- O, observed disease control [1, 8]: 100%
- O-E [1, 8]: 6.1
- E, expected disease control [1, 9]: 84.21%
- O, observed disease control [1, 9]: 97.12%
- O-E [1, 9]: 12.91
- E, expected disease control [1, 10]: 67.22%
- O, observed disease control [1, 10]: 89.72%
- O-E [1, 10]: 22.5
- E, expected disease control [1, 11]: 61.62%
- O, observed disease control [1, 11]: 86.36%
- O-E [1, 11]: 24.74
- E, expected disease control [1, 12]: 52.54%
- O, observed disease control [1, 12]: 79.57%
- O-E [1, 12]: 27.03
- E, expected disease control [1, 13]: 93.41%
- O, observed disease control [1, 13]: 96.01%
- O-E [1, 13]: 2.6
- E, expected disease control [1, 14]: 81.74%
- O, observed disease control [1, 14]: 96.55%
- O-E [1, 14]: 14.81
- E, expected disease control [1, 15]: 69.49%
- O, observed disease control [1, 15]: 89.47%
- O-E [1, 15]: 19.98
- E, expected disease control [1, 16]: 63.9%
- O, observed disease control [1, 16]: 90.91%
- O-E [1, 16]: 27.01
- E, expected disease control [1, 17]: 56.11%
- O, observed disease control [1, 17]: 87.84%
- O-E [1, 17]: 31.73
- E, Expected % disease control [2, 18]: 85.1%
- O, Observed % disease control [2, 18]: 86.1%
- O-E [2, 18]: 1.0
- E, Expected % disease control [2, 19]: 91.0%
- O, Observed % disease control [2, 19]: 91.0%
- O-E [2, 19]: 0.0
- E, Expected % disease control [2, 20]: 84.2%
- O, Observed % disease control [2, 20]: 89.6%
- O-E [2, 20]: 5.4
- E, Expected % disease control [2, 21]: 56.4%
- O, Observed % disease control [2, 21]: 84.9%
- O-E [2, 21]: 28.4
- E, Expected % disease control [2, 22]: 38.7%
- O, Observed % disease control [2, 22]: 63.8%
- O-E [2, 22]: 25.1
- E, Expected % disease control [2, 23]: 91.8%
- O, Observed % disease control [2, 23]: 91.7%
- O-E [2, 23]: −0.1
- E, Expected % disease control [2, 24]: 95.1%
- O, Observed % disease control [2, 24]: 98.6%
- O-E [2, 24]: −1.6
- E, Expected % disease control [2, 25]: 93.1%
- O, Observed % disease control [2, 25]: 91.7%
- O-E [2, 25]: −1.4
- E, Expected % disease control [2, 26]: 76.1%
- O, Observed % disease control [2, 26]: 89.9%
- O-E [2, 26]: 13.9
- E, Expected % disease control [2, 27]: 51.1%
- O, Observed % disease control [2, 27]: 86.9%
- O-E [2, 27]: 35.8
- E, Expected % disease control [2, 28]: 95.5%
- O, Observed % disease control [2, 28]: 97.2%
- O-E [2, 28]: 1.7
- E, Expected % disease control [2, 29]: 97.2%
- O, Observed % disease control [2, 29]: 98.7%
- O-E [2, 29]: 1.5
- E, Expected % disease control [2, 30]: 95.6%
- O, Observed % disease control [2, 30]: 97.9%
- O-E [2, 30]: 2.4
- E, Expected % disease control [2, 31]: 87.1%
- O, Observed % disease control [2, 31]: 98.0%
- O-E [2, 31]: 10.9
- E, Expected % disease control [2, 32]: 74.6%
- O, Observed % disease control [2, 32]: 97.0%
- O-E [2, 32]: 22.4
- performance in combination with A76 (indicative of synergy) ([2]; in combination with A76 potato, observed vs expected disease control): better than expected
